A word on the IC50: it is the concentration that inhibits the measured activity by half.

Structures can show the parent of a compound that is named as a salt. Where two headings read alike, the source gives them in different places.

In patent publication US20240261292A1, “COMBINATION THERAPIES” (Janssen Pharmaceutica NV, priority 2021, published 2024) one finds IC50 and microsomal CLint data, which are given here for 2 compounds.

In series [1] the test system is KO-52 cells. Briefly: Proliferation assay (spheroid), KO-52 control cell line. It counts as cell-based. The following applies: Homo sapiens, 8 days, read-out: spheroid assay_OneTime KO-52 IC50. The method, then: (§1) The anti-proliferative effect of menin/MLL protein/protein interaction inhibitor test compounds was assessed inhuman leukemia cell lines. The cell line MOLM-14 harbors a MLL translocation and expresses the MLL fusion protein MLL-AF9, respectively, as well as the wildtype protein from the second allele. OCI-AML3 cells that carry the NPM1c gene mutation were also tested. […] KO-52 was used as a control cell line containing two MLL (KMT2A) wildtype alleles in order to exclude compounds that display general cytotoxic effects.
(§2) KO-52 and OCI-AML3 cell lines were propagated in alpha-MEM (Sigma Aldrich) supplemented with 20% heat-inactivated fetal bovine serum (HyClone), 2 mM L-glutamine (Sigma Aldrich) and 50 μg/ml gentamycin (Gibco).
In order to assess the anti-proliferative effects, 200 MOLM-14 cells, 200 OCI-AML3 cells or 300 KO-52 cells were seeded in 200 μl media per well in 96-well round bottom, ultra-low attachment plates (Costar, catalogue number 7007). […] Spheroid like growth was measured in real-time by live-cell imaging (IncuCyteZOOM, Essenbio, 4× objective) acquiring images at day 8. Confluence (%) as a measure of spheroid size was determined using an integrated analysis tool.
In order to determine the effect of the test compounds over time, the confluence in each well as a measure of spheroid size, was calculated. […]

For series [2], the system named is OCI-AML3 cells. Briefly: Proliferation assay (spheroid), OCI-AML3. The series is classed as cell-based, human. The following applies: Homo sapiens, OCI-AML-3, […], 8 days. The method, then: as §1, §2
In order to assess the anti-proliferative effects, 200 MOLM-14 cells, 200 OCI-AML3 cells or 300 KO-52 cells were seeded in 200 μl media per well in 96-well round bottom, ultra-low attachment plates (Costar, catalogue number 7007). Cell seeding numbers were chosen based on growth curves to ensure linear growth throughout the experiment. Test compounds were added at different concentrations and the DMSO content was normalized to 0.3%. Cells were incubated for 8 days at 37° C. and 5% CO2. Spheroid like growth was measured in real-time by live-cell imaging (IncuCyteZOOM, Essenbio, 4× objective) acquiring images at day 8. Confluence (%) as a measure of spheroid size was determined using an integrated analysis tool.
In order to determine the effect of the test compounds over time, the confluence in each well as a measure of spheroid size, was calculated. Confluence of the highest dose of a reference compound was used as baseline for the LC (Low control) and the confluence of DMSO treated cells was used as 0% cytotoxicity (High Control, HC).
HC=High Control: Mean confluence (%) (DMSO treated cells);
Dose-response equation was used for the plot of % Effect vs Log10 compound concentration with a variable slope and fixing the maximum to 100% and the minimum to 0%. 2b) MEIS1 mRNA Expression Assay

The nature of series [3]: Metabolic stability in mouse liver microsomes. It counts as in vitro ADME. The following applies: pH 7.4, 0.5 mg/mL microsomes protein, read-out: Mouse LM Clint. The method, then: 4) Metabolic Stability in Human/Mouse Liver Microsomes
The objective of this study is to measure in vitro metabolic stability of test compound(s) in human and mouse liver microsomes and provide quantitative information on the rate of metabolic turnover (i.e., determination of the apparent intrinsic clearance of test).
Test items were prepared at a stock concentration of 10 mM in DMSO. For determination of metabolic turnover, a final working solution was prepared by adding 2 μL of 10 mM DMSO stock solution for test compound or positive control compounds to 198 μL of acetonitrile (100 μM final concentration).
Incubations were performed as follows: First, liver microsomes were thawed on ice and a master solution containing liver microsomes in 100 mM PBS (phosphate-buffered saline) at pH 7.4 is prepared. Next, the liver microsomes solution was added to the incubation plates and 10 mM NADPH (Nicotinamide-adenine dinucleotide phosphate) was added (MW: 833.4 g/mol; Roche Diagnostics GmbH1, Germany. Dissolved in phosphate buffer (100 mmol/L, pH 7.4)). The mixture was mixed for 10 seconds and pre-warmed in the incubation plate at 37° C. for 10 minutes. The metabolic reaction was initiated with the addition of 5 μL of the 100 μM working solution for test compound or positive control compounds to incubation plate (final test item concentration=1 μM). The reaction final mixture should contain 1 mM NADPH, 0.5 mg/mL microsomes protein and 1 μM test compound or positive control compound in 100 mM PBS at pH 7.4. The percentage of organic solvent in incubation mixture is 1% with DMSO 0.02%.
The reaction was quenched by transferring 50 μL of the incubated mixture at selected time points into the quenching plate containing 200 μL of cold methanol. […]
All calculations were carried out using Microsoft Excel. The slope value, k, was determined by linear regression of the natural logarithm of the remaining percentage of the parent drug vs. incubation time curve.
The in vitro half-life (in vitro t1/2) was determined from the slope value: […]
On the technique in general: Microsomes from liver hold many membrane-bound enzymes, among them those of drug oxidation.

With `CCN(C(=O)c1cc(F)ccc1Oc1nncnc1N1CCC2(C1)CN([C@H](CCCN(C)CCOC)C(C)C)C2)C(C)C` [Compound A3, (R)-N-ethyl-5-fluoro-N-isopropyl-2-((5-(2-(6-((2-methoxyethyl) (methyl)amino)-2-methylhexan-3-yl)-2,6-diazaspiro[3.4]octan-6-yl)-1,2,4-triazin-6-yl)oxy) benzamide oxalate], the IC50 in series [1] amounted to 7.75 µM; in series [2], 0.12 µM. For the same compound, in series [3] (mouse liver microsomes), the microsomal CLint at 1 μM was less than 7.5 µL/min/mg.

On to `CCN(C(=O)c1cc(F)ccc1Oc1nncnc1N1CCC2(C1)CN([C@H](CCCNCCOC)C(C)C)C2)C(C)C` [Compound 11, (R)-N-ethyl-5-fluoro-N-isopropyl-2-((5-(2-(6-((2-methoxyethyl)amino)-2-methylhexan-3-yl)-2,6-diazaspiro[3.4]octan-6-yl)-1,2,4-triazin-6-yl)oxy)benzamide], for which the IC50 was determined as 8.38 µM in series [1] and 0.21 µM in series [2]. Also, the microsomal CLint at 1 μM in series [3] (liver microsomes) is less than 7.5 µL/min/mg.
